# Measurements taken from US6890708B2, “Method for improving the quality of sperm for artificial insemination of animals” (priority 2000, dated 2005).
# What was measured:
# [1] = test system: boar spermatozoa; assay: Sperm viability in vitro (motility, acrosome morphology), Example I; format: cell-based, pig
# Method: Aliquots of 80 μl of the PMN suspension (see, PMN isolation and preparation of PMNs) in TM or TM-s, with either intact or inactivated complement, were transferred to a 96-well polystyrene microtest plate. To each well, 20 μl of sperm suspension (see, preparation of semen samples) was added and the microtest plate was placed in a humidified incubator at 38° C. with 5% CO2 in air. […] The samples were incubated with gentle swirling on a test plate shaker. After 15, 30, 45, 60 or 90 min., samples were quantitatively transferred into tubes containing an equal volume of 40 mg ml^−1 heparin (Sigma) in PBS. The heparin facilitates dissociation of agglutinated PMNs. The samples were thoroughly mixed, left for 15 min., and mixed again. Subsamples of 75 μl were fixed by addition of 25 μl of 2% (v/v) glutaraldehyde (Fluka, Brunschwig chemie, Amsterdam, The Netherlands) in PBS. “Blank” samples, i.e., sperm without PMNs (80 μl TM-s mixed with 20 μl sperm suspension), were incubated in parallel to monitor sperm survival during the treatment. “Reference” samples, i.e., frozen-thawed (killed) semen, were incubated in parallel with the PMNs as a reference for the phagocytotic activity of the PMNs. The frozen-thawed semen was taken from a large stock of semen from one ejaculate and washed 3 times in PBS prior to use.
# For evaluation of phagocytosis, wet mounts of the fixed samples were examined with a combination of phase-contrast and fluorescence microscopy (Olympus BH2, Tokyo, Japan) at 400× magnification. The mounts enabled observation and counting of fluorescently labeled spermatozoa inside and outside the phagocytes. By focusing at different levels in the mount, spermatozoa that were located above or below the PMN could be distinguished from those that were phagocytosed. […] Two hundred spermatozoa were evaluated and classified as inside or outside the PMN (i.e., phagocytosed or not phagocytosed). The same fixed mounts were used to assess the acrosome morphology of the non-phagocytosed spermatozoa at the moment of fixation. One hundred cells were classified using phase-contrast microscopy at 400× magnification, as NAR (normal apical ridge), NAR' (slightly altered normal apical ridge), DAR (damaged apical ridge), MAR (missing apical ridge) and LAC (loose acrosomal cap), as described by Pursel et al. (Pursel V G, Schulman L L and Johnson L A, 1978, Distribution and morphology of fresh and frozen-thawed sperm in the reproductive tract of gilts after insemination Biology of Reproduction 19 69-76.)
# [2] = test system: sows; assay: Example III Series 2: embryos and accessory sperm after insemination of sows; format: in vivo, pig
# Method: Series 2: Batches of sows (parity 2-13) received hCG at 84 hours after weaning. The sows were inseminated at 16 hours after hCG administration (on average 26 hours, ranging from 21-28 hours, before ovulation as observed by transrectal ultrasonography) or inseminated at 4 hours after ovulation. […] The sows were slaughtered at 115 (112-120) hours after ovulation. The embryos were flushed, examined morphologically, and the number of accessory sperm were counted.
# [3] = test system: boar spermatozoa; assay: Sperm viability in vitro (motility, acrosome morphology), Example I; format: cell-based, pig; remark: listed apart in the source
# [4] = Exp. 1, after adding active compound and pre-incubation 30 min. at 38° C.
# [5] = Exp. 1, blank samples without PMN, phagocytosis time 60 min.
# [6] = Exp. 1, blank samples without PMN, preincubated 30 min. at 38° C., phagocytosis time 30 min.
# [7] = Exp. 2, 0.2 mM, after adding active compound, without pre-incubation
# [8] = Exp. 2, 0.2 mM, blank samples without PMN, without pre-incubation, phagocytosis time 30 min.
# [9] = Exp. 2, 0.5 mM, after adding active compound, after pre-incubation
# [10] = Exp. 2, 0.5 mM, after adding active compound, without pre-incubation
# [11] = Exp. 2, 0.5 mM, blank samples without PMN, after pre-incubation
# [12] = Exp. 2, 0.5 mM, blank samples without PMN, without pre-incubation, phagocytosis time 30 min.
# [13] = Exp. 2, 1 mM, after adding active compound, after pre-incubation
# [14] = Exp. 2, 1 mM, after adding active compound, without pre-incubation
# [15] = Exp. 2, 1 mM, blank samples without PMN, after pre-incubation
# [16] = Exp. 2, 1 mM, blank samples without PMN, without pre-incubation, phagocytosis time 30 min.
# [17] = Exp. 2, 2 mM, after adding active compound, after pre-incubation
# [18] = Exp. 2, 2 mM, after adding active compound, without pre-incubation
# [19] = Exp. 2, 2 mM, blank samples without PMN, after pre-incubation
# [20] = Exp. 2, 2 mM, blank samples without PMN, without pre-incubation, phagocytosis time 30 min.
# [21] = Exp. 3, 1 mM, after pre-incubation of sperm 30 min. at 38° C.
# [22] = Exp. 3, 1 caffeine, blank samples without PMN, after pre-incubation at 38° C., phagocytosis time 30 min.
smiles,measurement,setting,value
"Cn1c(=O)c2c(ncn2C)n(C)c1=O [caffeine, 1,3,7-Trimethylxanthine]",% DAR,[1]; [4],30%
same,% LAC,[1]; [4],15%
same,% MAR,[1]; [4],02%
same,% NAR,[1]; [4],53%
same,% LAC,[1]; [5],22%
same,% MAR (second value of NAR-MAR-MAR-LAC),[1]; [5],36%
same,% MAR (third value of NAR-MAR-MAR-LAC),[1]; [5],05%
same,% NAR,[1]; [5],37%
same,% LAC,[1]; [6],21%
same,% MAR (second value of NAR-MAR-MAR-LAC),[1]; [6],39%
same,% MAR (third value of NAR-MAR-MAR-LAC),[1]; [6],03%
same,% NAR,[1]; [6],37%
same,% DAR,[1]; [7],12%
same,% LAC,[1]; [7],03%
same,% MAR,[1]; [7],01%
same,% motile sperm,[1]; [7],80%
same,% DAR,[1]; [8],12%
same,% LAC,[1]; [8],03%
same,% MAR,[1]; [8],00%
same,% NAR,[1]; [8],85%
same,% DAR,[1]; [9],14%
same,% LAC,[1]; [9],02%
same,% MAR,[1]; [9],01%
same,% NAR,[1]; [9],83%
same,% motile sperm,[1]; [9],80%
same,% DAR,[1]; [10],12%
same,% LAC,[1]; [10],02%
same,% MAR,[1]; [10],02%
same,% NAR,[1]; [10],84%
same,% motile sperm,[1]; [10],80%
same,% DAR,[1]; [11],12%
same,% LAC,[1]; [11],02%
same,% MAR,[1]; [11],01%
same,% NAR,[1]; [11],85%
same,% DAR,[1]; [12],10%
same,% LAC,[1]; [12],03%
same,% MAR,[1]; [12],00%
same,% NAR,[1]; [12],87%
same,% DAR,[1]; [13],16%
same,% LAC,[1]; [13],06%
same,% MAR,[1]; [13],01%
same,% NAR,[1]; [13],77%
same,% motile sperm,[1]; [13],80%
same,% DAR,[1]; [14],09%
same,% LAC,[1]; [14],03%
same,% MAR,[1]; [14],01%
same,% NAR,[1]; [14],87%
same,% motile sperm,[1]; [14],80%
same,% DAR,[1]; [15],21%
same,% LAC,[1]; [15],06%
same,% MAR,[1]; [15],01%
same,% NAR,[1]; [15],72%
same,% DAR,[1]; [16],10%
same,% LAC,[1]; [16],05%
same,% MAR,[1]; [16],00%
same,% NAR,[1]; [16],85%
same,% DAR,[1]; [17],20%
same,% LAC,[1]; [17],05%
same,% MAR,[1]; [17],02%
same,% NAR,[1]; [17],73%
same,% motile sperm,[1]; [17],80%
same,% DAR,[1]; [18],13%
same,% LAC,[1]; [18],04%
same,% MAR,[1]; [18],01%
same,% NAR,[1]; [18],82%
same,% motile sperm,[1]; [18],80%
same,% DAR,[1]; [19],24%
same,% LAC,[1]; [19],05%
same,% MAR,[1]; [19],01%
same,% NAR,[1]; [19],70%
same,% DAR,[1]; [20],12%
same,% LAC,[1]; [20],08%
same,% MAR,[1]; [20],01%
same,% NAR,[1]; [20],79%
same,% DAR,[1]; [21],24%
same,% LAC,[1]; [21],08%
same,% MAR,[1]; [21],01%
same,% NAR,[1]; [21],67%
same,% DAR,[1]; [22],24%
same,% LAC,[1]; [22],08%
same,% MAR,[1]; [22],02%
same,% NAR,[1]; [22],66%
same,"% fertilized oocytes, in words",[2],tended to be higher
same,% motile sperm,[3]; [4],60%
same,% NAR,[3]; [7],84%
same,% motile sperm,[3]; [21],65%
